Experiment [1] has as its system arachidonic acid-induced ear edema. Description: Arachidonic acid-induced ear edema in CF1 mice, topical. It is filed as in vivo. As to conditions: Mus musculus, 1 h, 100 μg/ear, topical in acetone just prior to 1 mg arachidonic acid, one hour after challenge. On the procedure:
This assay indicates a specific use in the treatment of skin diseases such as psoriasis. This assay also implies a reduction in leukotrienes caused by the compounds of the invention, and indicates the use of these compounds in other diseases where the production of leukotrienes is involved in the pathological process.
The assay is a modification of the procedure described by Young et al. (J. Invest. Dermatol. (1983) 80, 48). 1 mg of arachidonic acid is applied as an acetone solution to the inner surface of the pinna of CF1 mice. Test compound dissolved in acetone is applied to the ear just prior to the arachidonic acid challenge. One hour after challenge, 6 mm disks are removed from the ear with a biopsy punch, and the weight is determined. The results are determined as a percent inhibition of the swelling which occurs in the absence of the test compound.

For experiment [2], the target named is T1, 5-lipoxygenase (Rattus norvegicus, UniProt P12527).
T1 construct: endogenous in cells; host or cells: RBL-1 (rat basophilic leukemia) cells, 10,000×g supernatant of homogenate
T1 sequence (P12527 1-673): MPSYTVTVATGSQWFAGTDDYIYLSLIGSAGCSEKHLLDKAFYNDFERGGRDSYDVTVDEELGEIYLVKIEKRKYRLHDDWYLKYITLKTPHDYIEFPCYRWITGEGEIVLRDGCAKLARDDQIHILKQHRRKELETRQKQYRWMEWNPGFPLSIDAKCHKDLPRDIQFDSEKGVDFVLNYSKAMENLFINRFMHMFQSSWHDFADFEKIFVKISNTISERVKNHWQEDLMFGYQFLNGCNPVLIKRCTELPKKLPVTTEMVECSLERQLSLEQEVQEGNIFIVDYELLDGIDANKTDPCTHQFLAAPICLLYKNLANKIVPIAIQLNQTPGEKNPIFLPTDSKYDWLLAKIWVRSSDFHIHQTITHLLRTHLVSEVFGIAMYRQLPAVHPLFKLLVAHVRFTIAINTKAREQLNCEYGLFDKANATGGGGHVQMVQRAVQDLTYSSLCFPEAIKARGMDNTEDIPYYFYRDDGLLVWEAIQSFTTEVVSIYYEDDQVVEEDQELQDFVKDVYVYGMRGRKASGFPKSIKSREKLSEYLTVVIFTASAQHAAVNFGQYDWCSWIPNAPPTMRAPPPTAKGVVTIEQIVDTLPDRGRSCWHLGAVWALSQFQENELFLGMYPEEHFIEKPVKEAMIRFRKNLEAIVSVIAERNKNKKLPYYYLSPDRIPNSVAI
The experiment is described as follows: 5-lipoxygenase inhibition, 10,000×g supernatant from homogenized rat basophilic leukemia (RBL-1) cells. It is filed as biochemical. As to conditions: RBL-1 10,000×g supernatant, pH 7.0, 5 min incubation with compound, 14C-arachidonic acid, 37° C., two minutes. On the procedure:
The test method is a modification of the procedure developed by Jakschik et al. (Prostaglandins (1978) 16, 733; Biochem. Biophys. Res. Commun. (1980) 95, 103; Biochem. Biophys. Res. Commun. (1981) 102, 624).
The 10,000×g supernatant from homogenized RBL-1 cells was incubated with test compound in a pH 7.0 phosphate buffer for five minutes. ^14 C-arachidonic acid was added to initiate the reaction, which was allowed to continue at 37° C. for two minutes. The reaction was stopped by freezing in a dry ice/ethanol slurry, and the 5-lipoxygenase products were separated from the substrate on silica gel columns. The amount of individual lipoxygenase products produced was determined and the percent inhibition calculated.

By inhibition in vivo is commonly meant the drop in the measured response relative to a control, in per cent. A higher inhibition in vivo goes with strong suppression. What is called IC50 is the concentration at which inhibition is half-maximal.

`COc1ccc(Cc2ccc3c(ccn3C)c2O)cc1` [Example 1e] came in with an inhibition in vivo at 100 µg/ear in experiment [1] of 64%.

Consider `CC(=O)Oc1c(Cc2ccccc2)ccc2c1ccn2C` [Example 6a, 1-Methyl-4-acetoxy-5-phenylmethylindole], for which the IC50 in experiment [2] was 420 nM. In addition, the inhibition in vivo at 100 µg/ear in experiment [1] worked out at 72%.

`COc1ccc(Cc2ccc3c(ccn3C)c2OC(C)=O)cc1` [Example 6c] showed an inhibition in vivo at 100 µg/ear in experiment [1] of 72%.

Regarding `Oc1c(Cc2ccccc2)ccc2c1ccn2Cc1ccccc1` [Example 1d], in experiment [2], the half-inhibitory concentration (IC50) is 42 nM. This molecule returned an inhibition in vivo at 100 µg/ear in experiment [1] of 41%.

With `Oc1c(Cc2ccccc2)ccc2sccc12` [Example 1b], in experiment [2], the IC50 was 130 nM. This molecule registered an inhibition in vivo at 100 µg/ear in experiment [1] of 53%.

On to `Cn1ccc2c(O)c(Cc3ccccc3)ccc21` [Example 1a, 1-Methyl-4-hydroxy-5-phenylmethylindole], for which the IC50 in experiment [2] turned out to be 56 nM. The inhibition in vivo at 100 µg/ear in experiment [1] came to 74%.

With `Oc1c(Cc2ccccc2)ccc2occc12` [Example 1c], the IC50 in experiment [2] worked out at 400 nM. In addition, in experiment [1], the inhibition in vivo at 100 µg/ear was 42%.

In experiment [1], `CC(=O)Oc1c(Cc2cccs2)ccc2c1ccn2C` [Example 6b] gave an inhibition in vivo at 100 µg/ear of 54%.

In turn, `Cn1ccc2c(O)c(Cc3ccc4c(c3)OCO4)ccc21` [Example 1g] returned an inhibition in vivo at 100 µg/ear in experiment [1] of 54%.

Values taken from patent publication US5093351A, “Substituted indole, benzofuran and benzothiophene derivatives as 5-lipoxygenase inhibitors” (Du Pont Merck Pharmaceutical Company, priority 1989, dated 1992).
